Source: patent publication US5384314A, “1α-fluoro-25-hydroxy-16-ene-23-yne-cholecalciferol” (Hoffmann-La Roche Inc., priority 1994, dated 1995)
Like-named read-outs stand apart in the source and are kept apart here.

Columns and labels:
[1] = system: human sebocytes (sebaceous cells); assay: inhibition of human sebocyte proliferation in vitro; assay type: cell-based; conditions: for IC50: read-out: ED50 (amount of compound necessary to inhibit the proliferation of the sebaceous cells by 50% as compared to a control)
Experimental: Sebaceous cells were isolated from adult human sebaceous glands as in J. Invest. Dermatol. 96:341-348 (1991) and cultured on a layer of growth-arrested 3T3 mouse fibroblasts.
The cells were cultured in Iscove's medium containing 10% fetal calf serum and 4 μg/ml dexamethasone.
Cells were plated in medium without 1α-fluoro-25-hydroxy-16-ene-23-yne-cholecalciferol. 24-48 hours after the initial plating, the cultures were given fresh medium containing the compound of the invention. Every 48 hours, the cultures were given fresh medium containing the compound of the invention. On the day of harvesting, the cultures were rinsed with a 0.03% EDTA in PBS, to remove only the 3T3 fibroblasts. The remaining sebocyyte colonies were incubated in 0.05% trypsin/0.03% EDTA to create a single cell suspension of sebocytes. The cells were diluted, mixed vigorously to maintain a single cell suspension, and counted in a hemocytometer.
The compounds tested were handled in the following manner. Stock solutions were made up as 10^-2 M solutions in degassed 100% ethanol and stored at -20° C. in the dark. Solutions were never used after storage of more than one month. During experimental use the solutions, which were aliquoted, were thawed once and used by diluting directly into complete medium to the appropriate concentration, at 10^-6, 10^-7, 10^-8 M and 10^-9. The compounds tested were
The results are summarized in table 1 as the amount of compound necessary to inhibit the proliferation of the sebaceous cells by 50% as compared to a control (ED50). The control was a culture treated with diluent only.

[2] = system: sebaceous glands in ears of the male Syrian hamster; conditions: cited from earlier work
[3] = system: hamster ear sebaceous gland; assay: hamster ear sebaceous gland model, topical study; assay type: in vivo; conditions: 4 weeks, vs control
Experimental: The compound was evaluated for topical anti-acne activity in the hamster ear sebaceous gland model. For these studies, the compound was dissolved in acetone. Fifty (50) μl of the drug-containing solution was applied daily (5 days per week) to the dorsal side of the right ear of the hamster. Control hamsters received 50 μl of acetone. The animals were sacrificed after 4 weeks. The ears were removed and processed for histological evaluation. The ventral surface was separated from the rest of the ear. A 2 mm punch was removed 5 mm from the tip of the ear and stained in 0.1% Sudan Black B dissolved in 100% propylene glycol overnight. After destaining, the areas of the sebaceous glands were determined from the cross sections by image analysis using a Donsato Image Analysis System. The data was expressed as a percentage change from control animals for 80-120 sebaceous glands per dose.

[4] = system: hamster ear sebaceous gland; assay: hamster ear sebaceous gland model, oral study; assay type: in vivo, male Golden Syrian hamsters; conditions: 4 weeks
Experimental: The purpose of the test was to evaluate the effect of the inventive compound on the sebaceous glands of the hamster ear after oral administration of the compound. 200 μl of the compound of the invention dissolved in Tween 20/water/ethanol […] administered daily (5 days per week) by garage to male Golden Syrian hamsters. The animals were sacrificed at 4 weeks and the ears were processed for histological evaluation. One ear was fixed with 10% buffered formalin, processed for paraffin embedding, sectioned, and stained with hematoxyline and eosin (H&E). The area of the sebaceous glands was measured on histologically prepared cross-sections of the ear by image analysis using a Leitz TAS Plus system. Data is given as the average areas of 48 sebaceous glands per dose.

Row | SMILES | IC50 ([1]; Homo sapiens) | size of sebaceous glands in ears (result in words) [2] | IC50 ([1]; human sebocytes in vitro, control treated with diluent only) | human sebocyte proliferation in vitro (result in words) ([1]; in vitro) | Change in Hamster Ear Sebaceous Gland Size Cross Section Analysis ([3]; 0.001 μg/animal, ns = not statistically significant from controls) | Change in Hamster Ear Sebaceous Gland Size Cross Section Analysis ([3]; 0.01 μg/animal, ns = not statistically significant from controls) | Change in Hamster Ear Sebaceous Gland Size Cross Section Analysis ([3]; 0.1 μg/animal, ns = not statistically significant from controls) | Change in Hamster Ear Sebaceous Gland Size Cross Section Analysis ([3]; 1.0 μg/animal, not marked ns) | % Change in Hamster Ear Sebaceous Gland Size Cross Section Analysis ([4]; 0.05 μg/kg) | % Change in Hamster Ear Sebaceous Gland Size Cross Section Analysis ([4]; 0.5 μg/kg) | % Change in Hamster Ear Sebaceous Gland Size Cross Section Analysis ([4]; 5.0 μg/kg) | % Change in Hamster Ear Sebaceous Gland Size Cross Section Analysis ([4]; 50.0 μg/kg)
1 | C=C1/C(=C\C=C2/CCC[C@]3(C)[C@@H]([C@H](C)CCCC(C)(C)O)CC[C@@H]23)C[C@@H](O)C[C@@H]1O [1,25-dihydroxycholecalciferol, reference compound] | 50 nM | reducing the size of sebaceous glands in ears of the male Syrian hamster | – | – | – | – | – | – | – | – | – | –
2 | C=C1/C(=C\C=C2/CCC[C@]3(C)C([C@H](C)CC#CC(C)(C)O)=CC[C@@H]23)C[C@@H](O)C[C@@H]1F [1α-fluoro-25-hydroxy-16-ene-23-yne-cholecalciferol] | – | – | 1 nM | inhibits human sebocyte proliferation in vitro | -3% | -18% | -28% | -40% | -28% | -28% | -34% | -35%
